{
  "source": "patent US20140066303A1",
  "about": "“COMPOSITIONS AND METHODS FOR IMPROVING THE COMPATIBILITY OF WATER SOLUBLE HERBICIDE SALTS” (DOW AGROSCIENCES LLC, priority 2012, published 2014)",
  "format_in_all_cases": "physicochemical",
  "key": {"[1]": {"assay": "Critical Crystallization Concentration (CCC) of 2,4-D DMA in spray mixtures with glyphosate potassium salt", "conditions": "2,4-D DMA + Roundup PowerMax 1:1 AE; no SAC, control sample; 342 ppm hardness water; 24 h ambient", "text": "(§1) Alternatively, the relative effectiveness of the surface active compatibilizers described herein at improving the compatibility of the aqueous herbicide solutions described herein can be determined by measuring the Critical Crystallization Concentration (CCC) of the aryloxyalkanoic acid salt, the pyridyloxyalkanoic acid salt, the arylcarboxylic acid salt, or the heteroarylcarboxylic acid salt of an inorganic cation such as, for example, the potassium salt of 2,4-D in a tank mix solution. The CCC of a particular composition can be measured by preparing saturated and over saturated solutions or mixtures of the composition and then measuring the concentration of the particular herbicidal carboxylic acid remaining in solution. […]\n(§2) The CCC of 2,4-D compositions were measured using the following method. […] The CCC was determined by measuring the X-intercept of the extrapolated linear function of the crystal weight vs. 2,4-D wt % AE concentration. […] The amounts of 2,4-D and glyphosate salts were added to achieve desired AE concentrations of 2,4-D and glyphosate at 1:1 ratio, and the amount of water was calculated as a balance ingredient to achieve the final mixture volume of 100 ml. • 7. […]"}, "[2]": {"assay": "Critical Crystallization Concentration (CCC) of 2,4-D DMEA in spray mixtures with glyphosate potassium salt", "conditions": "2,4-D DMEA + Roundup PowerMax 1:1 AE; no SAC, control sample; 342 ppm water; 24 h ambient", "text": "as §1, §2"}, "[3]": {"assay": "On-set pH of crystallization (OSPOC) of aqueous 2,4-D potassium solution, titration with sulfuric acid", "conditions": "3% AE w/w 2,4-D K in water; control, no SAC (0.0%); pH lowered with 0.2 N sulfuric acid", "text": "Without intending to be bound by theory, the surface active compatibilizers described herein are believed to improve the compatibility of aqueous herbicide solutions comprised of at least one of a water soluble salt of an aryloxyalkanoic acid, a water soluble salt of a pyridyloxyalkanoic acid, a water soluble salt of an arylcarboxylic acid, a water soluble salt of a heteroarylcarboxylic acid and a water soluble salt of glyphosate, a suitable concentration of one or more inorganic cations, and a pH of less than about 6.5 by preventing or inhibiting the crystallization or precipitation of solids. The relative effectiveness of the surface active compatibilizers in preventing the formation of these solids can be estimated by measuring the on-set pH of crystallization (OSPOC) of the solids in a titration analysis procedure. The OSPOC of a particular composition can be measured, for example, by titrating a solution of an aryloxyalkanoic or a pyridyloxyalkanoic acid salt of an inorganic cation such as, for example, the potassium salt of 2,4-D with a strong acid such as, for example, sulphuric acid until solids or crystals begin forming at a particular pH value (the OSPOC). […]"}},
  "data": [
    {"smiles": "CNC.O=C(O)COc1ccc(Cl)cc1Cl", "note": "[2,4-D DMA, 2,4-D dimethyl ammonium salt]", "values": [
      {"measurement": "2,4-D CCC", "setting": "[1]", "result": 0.89, "unit": "% AE"}
    ]},
    {"smiles": "CN(C)CCO.O=C(O)COc1ccc(Cl)cc1Cl", "note": "[2,4-D DMEA, 2,4-D dimethylethanol ammonium salt]", "values": [
      {"measurement": "2,4-D CCC", "setting": "[2]", "result": 1.04, "unit": "% AE"}
    ]},
    {"smiles": "O=C([O-])COc1ccc(Cl)cc1Cl.[K+]", "note": "[2,4-D K, 2,4-D potassium]", "values": [
      {"measurement": "On-Set pH of Crystallization (OSPOC)", "setting": "[3]", "result": 6.16}
    ]}
  ]
}
